Patent US6472348B1, “Pyridone derivatives and herbicides” (Kumiai Chemical Industry Co., Ltd., priority 1996, dated 2002)

Legend:
Assay type in all cases: in vivo
green foxtail (Se) = experiment: Test Example 7: crop plant selectivity by upland field soil treatment (corn), herbicidal effects; parameters: scale not given here; conditions: 21st day after application
In short: (§1)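 Greenhouse pot test: scores for herbicidal effect and corn phytotoxicity were given 21 days after soil treatment, against set rating standards. Crop and weed species (foxtail, smartweed, amaranth, lambsquarters, China jute) were sown together in sand and covered with soil beforehand.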

[1] = tested on: common lambsquarters (Ch); experiment: as above; parameters: scale not given here; conditions: 21st day after application
In short: as §1

China jute (Ab) = experiment: as above; parameters: scale not given here; conditions: 21st day after application
In short: as §1

pale smartweed (Po) [2] = experiment: as above; parameters: scale not given here; conditions: 21st day after application
In short: as §1

Digitaria ciliaris (Di) = experiment: Test Example 2: herbicidal effects by upland field soil treatment; conditions: 100 g of the active ingredient per 10 ares;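 further: grade of growth control; 5 = at least 90%; 4 = 70 to 90%; 3 = 50 to 70%; 2 = 30 to 50%; 1 = 10 to 30%; 0 = under 10%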
From the text: (§2) (Test on Herbicidal Effects by Upland Field Soil Treatment)

slender amaranth (Am) = experiment: as above; conditions: 100 g of the active ingredient per 10 ares;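 further: grade of growth control; 5 = at least 90%; 4 = 70 to 90%; 3 = 50 to 70%; 2 = 30 to 50%; 1 = 10 to 30%; 0 = under 10%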
From the text: as §2

barnyardgrass (Ec) = experiment: as above; conditions: 100 g of the active ingredient per 10 ares;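 further: grade of growth control; 5 = at least 90%; 4 = 70 to 90%; 3 = 50 to 70%; 2 = 30 to 50%; 1 = 10 to 30%; 0 = under 10%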
From the text: as §2

[3] = tested on: common lambsquarters (Ch); experiment: as above; conditions: 100 g of the active ingredient per 10 ares
From the text: as §2

rice flatsedge (Ci) = experiment: as above; conditions: 100 g of the active ingredient per 10 ares;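 further: grade of growth control; 5 = at least 90%; 4 = 70 to 90%; 3 = 50 to 70%; 2 = 30 to 50%; 1 = 10 to 30%; 0 = under 10%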
From the text: as §2

pale smartweed (Po) [4] = experiment: as above; conditions: 100 g of the active ingredient per 10 ares
From the text: as §2

[5] = 21st day after the application, index 0-5 of Table 47
[6] = evaluated on the 21st day after application

| Structure (SMILES) | Herbicidal effects Se (green foxtail (Se); dose 6.3 g ai/10a) | Herbicidal effects Ch ([1]; dose 6.3 g ai/10a) | Herbicidal effects Ab (China jute (Ab); dose 6.3 g ai/10a) | Herbicidal effects Po (pale smartweed (Po) [2]; dose 6.3 g ai/10a) | Herbicidal effects Di (Digitaria ciliaris (Di); [5]) | Herbicidal effects Am (slender amaranth (Am); [5]) | Herbicidal effects Ec (barnyardgrass (Ec); [5]) | Herbicidal effects Ch [3, 5] | Herbicidal effects Ci (rice flatsedge (Ci); [5]) | Herbicidal effects Po (pale smartweed (Po) [4]; [5]) | Herbicidal effects Di (Digitaria ciliaris (Di); [6]) | Herbicidal effects Am (slender amaranth (Am); [6]) | Herbicidal effects Ec (barnyardgrass (Ec); [6]) | Herbicidal effects Ch [3, 6] | Herbicidal effects Ci (rice flatsedge (Ci); [6]) | Herbicidal effects Po (pale smartweed (Po) [4]; [6]) | Herbicidal effects Se (green foxtail (Se); dose 1.6 g ai/10a) | Herbicidal effects Ch ([1]; dose 1.6 g ai/10a) | Herbicidal effects Ab (China jute (Ab); dose 1.6 g ai/10a) | Herbicidal effects Po (pale smartweed (Po) [2]; dose 1.6 g ai/10a) |
| --- | --- | --- | --- | --- | --- | --- | --- | --- | --- | --- | --- | --- | --- | --- | --- | --- | --- | --- | --- | --- |
| Cn1c(C(F)(F)F)ccc(-c2cc(OCC3CC3)c(Cl)cc2F)c1=O [1-160] | 5 | 5 | 5 | 5 | 5 | 5 | 5 | 5 | 5 | 5 |  |  |  |  |  |  |  |  |  |  |
| Cn1c(C(F)(F)F)ccc(-c2cc(OCCCl)c(Cl)cc2F)c1=O [1-171] | 5 | 5 | 5 | 5 |  |  |  |  |  |  | 5 | 5 | 5 | 5 | 5 | 5 |  |  |  |  |
| C#CCOc1cc(-c2ccc(C(F)(F)F)n(N)c2=O)c(F)cc1Cl [1-178] |  |  |  |  |  |  |  |  |  |  | 5 | 5 | 5 | 5 | 5 | 5 | 5 | 5 | 5 | 5 |
| COc1cc(-c2ccc(C(F)(F)F)n(N)c2=O)c(F)cc1Cl [1-179] | 5 | 5 | 5 | 5 |  |  |  |  |  |  | 5 | 5 | 5 | 5 | 5 | 5 |  |  |  |  |
| C#CC(C)Oc1cc(Cl)cc(F)c1-c1ccc(C(F)(F)F)n(C)c1=O (stereo not drawn) [1′-5] | 5 | 5 | 5 | 5 |  |  |  |  |  |  | 5 | 5 | 5 | 5 | 5 | 5 | 4 | 5 | 5 | 5 |
| C=CC(C)Oc1cc(-c2ccc(C(F)(F)F)n(C)c2=O)c(F)cc1Cl (stereo not drawn) [Compound 1-182] | 5 | 5 | 5 | 5 |  |  |  |  |  |  | 5 | 5 | 5 | 5 | 5 | 5 |  |  |  |  |
| CCON=Cc1cc(-c2ccc(C(F)(F)F)n(C)c2=O)c(F)cc1Cl [Compound 1-187] | 5 | 5 | 5 | 5 |  |  |  |  |  |  | 5 | 5 | 5 | 5 | 5 | 5 |  |  |  |  |
| CCOC(=O)CON=Cc1cc(-c2ccc(C(F)(F)F)n(C)c2=O)c(F)cc1Cl [Compound 1-191] | 5 | 5 | 5 | 5 |  |  |  |  |  |  | 5 | 5 | 5 | 5 | 5 | 5 |  |  |  |  |
| C=CC(O)c1cc(-c2ccc(C(F)(F)F)n(C)c2=O)c(F)cc1Cl (stereo not drawn) [Compound 1-197] | 5 | 5 | 5 | 5 |  |  |  |  |  |  | 5 | 5 | 5 | 5 | 5 | 5 |  |  |  |  |
| C#CC(O)c1cc(-c2ccc(C(F)(F)F)n(C)c2=O)c(F)cc1Cl (stereo not drawn) [Compound 1-202] |  |  |  |  |  |  |  |  |  |  | 5 | 5 | 5 | 5 | 5 | 5 | 5 | 5 | 5 | 5 |
| CSCOc1cc(-c2ccc(C(F)(F)F)n(C)c2=O)c(F)cc1Cl [Compound 1-208] | 5 | 5 | 5 | 4 |  |  |  |  |  |  | 5 | 5 | 5 | 5 | 5 | 5 |  |  |  |  |
| C#CCN1C(=O)COc2cc(Cl)c(-c3ccc(C(F)(F)F)n(C)c3=O)cc21 [Compound 2-25] |  |  |  |  |  |  |  |  |  |  | 5 | 5 | 5 | 5 | 5 | 5 | 5 | 5 | 5 | 5 |
| C=CCN1C(=O)COc2cc(Cl)c(-c3ccc(C(F)(F)F)n(C)c3=O)cc21 [Compound 2-26] | 5 | 5 | 5 | 5 |  |  |  |  |  |  | 5 | 5 | 5 | 5 | 5 | 5 |  |  |  |  |
| Cc1cc2c(-c3ccc(C(F)(F)F)n(C)c3=O)c(F)cc(Cl)c2o1 [Compound 4-1] | 5 | 5 | 5 | 5 |  |  |  |  |  |  | 5 | 5 | 5 | 5 | 5 | 5 | 5 | 5 | 5 | 5 |
| CCc1cc2c(-c3ccc(C(F)(F)F)n(C)c3=O)c(F)cc(Cl)c2o1 [Compound 4-2] | 5 | 5 | 5 | 5 |  |  |  |  |  |  | 5 | 5 | 5 | 5 | 5 | 5 | 5 | 5 | 5 | 5 |
| CCCc1cc2c(-c3ccc(C(F)(F)F)n(C)c3=O)c(F)cc(Cl)c2o1 [Compound 4-3] | 5 | 5 | 5 | 5 |  |  |  |  |  |  | 5 | 5 | 5 | 5 | 5 | 5 |  |  |  |  |
| CCc1cc2c(Cl)cc(F)c(-c3ccc(C(F)(F)F)n(C)c3=O)c2o1 [Compound 5-2] | 5 | 5 | 5 | 5 |  |  |  |  |  |  | 5 | 5 | 5 | 5 | 5 | 5 |  |  |  |  |
| CON=Cc1cc(-c2ccc(C(F)(F)F)n(C)c2=O)c(F)cc1Cl [Compound No. 1-72, 5-(1-methyl-6-trifluoromethyl-2(1H)-pyridon-3-yl)-2-chloro-4-fluorobenzaldehydeoxime-O-methyl ether] |  |  |  |  | 5 | 5 | 5 | 5 | 5 | 5 |  |  |  |  |  |  | 5 | 5 | 5 | 5 |
